Results on 33 compounds are retold here after US8399452B2, “Dibenzo[b,f][1,4]oxazepin-11-yl-N-hydroxybenzamides as HDAC inhibitors” (Methylgene Inc., priority 2006, dated 2013).

Like-named read-outs stand apart in the source and are kept apart here.

Assay [1] concerns HDAC in primary mouse cortical neurons. Nature of the assay: Whole-Cell Histone Deacetylase (HDAC) Inhibition Assay in Primary Mouse Cortical Cultures. The assay is classed as cell-based. How it is done: Primary neocortical cultures are established through the dissection of the neocortex from E17 embryos harvested from time-pregnant Balb/C mice. Following dissection, the neocortical tissue specimens undergo digestion by incubation at 37° C. for 10 minutes in dissection medium (1×HBSS/10 mM HEPES/1 mM Sodium Pyruvate) supplemented with (0.25%) Trypsin and (0.1%) DNase I. Digested tissue is washed and resuspended in plating medium (NeuroBasal/10% HS/0.5 mM L-Glutamine (Invitrogen Corporation)) for trituration. Additional plating medium is added, and the contents are passed over a 70 um cell-strainer. The cell-density is quantified using a hemacytometer, and dilutions are made to allow for the plating of 50000 cells/well/100 uL in 96-well PDL-coated plates. Plates are incubated for 4-5 hours in 37° C./5% CO2-incubator, after which time the entire volume is exchanged to feeding medium (NeuroBasal/2% B-27 Serum-free supplement/0.5 mM L-Glutamine/1% Penicillin-Streptomycin (Invitrogen Corporation)). The cultures undergo two 50% fresh feeding medium exchanges at 3 days in vitro (DIV3), and again at DIV7.
Compounds for testing are resuspended in dimethyl sulphoxide (DMSO), and further diluted in DMSO for a ten-point dose-response curve, with appropriate controls. Each master plate is assayed in triplicate. […] Three DIV9 culture plates are leveled to 50 uL/well, onto which each has overlaid 50 uL/well of the diluted daughter plate. The plates are returned to the 37° C./5% CO2-incubator for 16-18 hours.
The next step of the assay involves the exposure of a HDAC colorimetric substrate, comprising an acetylated lysine side chain, to the compound-treated neuronal cultures. Based on the ability of the compound to inhibit HDAC activity in the neuronal cultures, the substrate is deacetylated by HDACs, and subsequently sensitized. […] Compound-incubated culture plates are again leveled to 50 uL/well and 2 uL/well of 7.5 mM BOC-Lys (Ac)-AMC substrate is added and thoroughly mixed. Plates are returned to the 37° C./5% CO2-incubator for 1 hour.
The final addition to the culture plates entails treatment with a Fluor de LyS™-based developer (BIOMOL Research Laboratories, Inc.) to produce a fluorophore, which is analyzed using a spectrophotometer. The developer solution (1× Fluor de Lys™/1% NP-40/1 uM TSA in HDAC Buffer Solution) is prepared, and 50 uL/well is added to each of the wells of the culture plates. […] The plates are returned to the 37° C./5% CO2-incubator for 10-15 minutes, after which time, they are removed and set in the dark at room temperature for 5-10 minutes.

The target of assay [2] is histone deacetylase (HDAC Enzyme). Nature of the assay: Inhibition of Histone Deacetylase Enzymatic Activity (Boc-Lys(Ac)-AMC, Fluor-de-Lys developer). The assay is classed as biochemical. The protocol: The following protocol is used to assay the compounds of the invention.
The mixture is pre-incubated for 5 minutes at room temperature. The reaction is started by bringing the temperature to 37° C. and adding 16 μl substrate. Total reaction volume is 50 μl.
In the Tables 8, 9 and 10, A≦[…]<B≦0.1 μM; 0.1 μM<C≦1 μM; and 1 μM<D≦10 μM.

Setting [3] is: Table 10, whole-cell, read-out: HDAC Inhibition (IC50 μM) WC mouse cortical neurons.
[4] abbreviates: Table 10, read-out: HDAC Inhibition (IC50 μM) HDAC Enzyme.
[5] abbreviates: Table 9, read-out: HDAC Inhibition (IC50 μM) HDAC Enzyme.

As usually defined, the IC50 is the concentration needed to halve the response being measured. In the case of `O=C(NO)c1ccc(OCCN2C(=O)c3ccccc3Oc3ccccc32)c(F)c1`, the IC50 in assay [1] (setting [3]) is below 1 µM; in assay [2] (setting [4]), 0.05 to 0.1 µM.

As to `O=C(NO)c1ccc(OCCN2C(=O)c3cc(F)ccc3Oc3ccccc32)cc1`, the IC50 in assay [1] (setting [3]) is below 1 µM; in assay [2] (setting [4]), below 0.05 µM.

In the case of `O=C(NO)c1ccc(OCCN2C(=O)c3ccccc3Oc3cc(Cl)ccc32)cc1`, the IC50 in assay [1] (setting [3]) was 1 to 5 µM; in assay [2] (setting [4]) it was below 0.05 µM.

For `O=C(NO)c1ccc(OCC(=O)N2Cc3ccccc3Oc3ccccc32)cc1`, the IC50 in assay [1] (setting [3]) was 1 to 5 µM; in assay [2] (setting [4]), 0.1 to 1 µM.

Regarding `O=C(NO)c1cccc(OCCN2C(=O)c3ccccc3Oc3ccccc32)c1`, the IC50 was above 15 µM in assay [1] (setting [3]) and 0.1 to 1 µM in assay [2] (setting [4]).

Regarding `O=C(NO)c1ccc(OCCN2C(=O)c3ccccc3Oc3ccccc32)cc1`, the figures for the IC50 in assay [1] (setting [3]) and in assay [2] (setting [4]) were below 1 µM and below 0.05 µM, respectively.

`CN1CCC2=C(C1)Oc1ccccc1N(CCOc1ccc(C(=O)NO)cc1)C2=O`: the IC50 in assay [1] (setting [3]) is below 1 µM; in assay [2] (setting [4]), below 0.05 µM.

Consider `O=C(NO)c1ccc(OCCN2C(=O)CCOc3ccccc32)cc1`, for which the IC50 in assay [1] (setting [3]) is below 1 µM; in assay [2] (setting [4]), below 0.05 µM.

Consider `O=C(NO)c1ccc(OCCN2CCOc3ccccc3C2=O)cc1`, for which the figures for the half-maximal inhibitory concentration (IC50) in assay [1] (setting [3]) and in assay [2] (setting [4]) were 1 to 5 µM and below 0.05 µM, respectively.

As to `O=C(NO)c1ccc(OCCN2C(=O)c3cccnc3Oc3ccccc32)cc1`, the figures for the IC50 in assay [1] (setting [3]) and in assay [2] (setting [4]) were below 1 µM and below 0.05 µM, respectively.

On to `O=C(NO)c1ccc(OCCN2C(=O)c3ccncc3Oc3ccccc32)cc1`, for which the IC50 in assay [1] (setting [3]) is below 1 µM; in assay [2] (setting [4]), below 0.05 µM.

Turning to `O=C(NO)c1ccc(C2=Nc3ccccc3Oc3ccsc32)cc1` [(Z)-4-(benzo[b]thieno[2,3-f][1,4]oxazepin-10-yl)-N-hydroxybenzamide], the IC50 in assay [1] (whole cell, read-out: HDAC Inhibtion (IC50 μM) WC mouse cortical neurons) is 1 to 5 µM; in assay [2] (read-out: HDAC Inhibtion (IC50 μM) HDAC Enzyme), below 0.05 µM.

Take `Cc1cccc(N2C[C@H]3C[C@@H]2CN3c2ccc(C(=O)NO)cc2)c1` [N-hydroxy-4-((1R,4R)-5-m-tolyl-2,5-diazabicyclo[2.2.1]heptan-2-yl)benzamide]: the IC50 in assay [2] (setting [5]) is 0.1 to 1 µM.

Take `O=C(NO)c1ccc(N2C[C@@H]3C[C@H]2CN3c2cccc(C(F)(F)F)c2)cc1` [N-hydroxy-4-((1S,4S)-5-(3-(trifluoromethyl)phenyl)-2,5-diazabicyclo[2.2.1]heptan-2-yl)benzamide]: the IC50 in assay [2] (setting [5]) is 0.1 to 1 µM.

Take `O=C(NO)c1ccc(N2C[C@@H]3C[C@H]2CN3c2cc(C(F)(F)F)ccn2)cc1` [N-hydroxy-4-((1S,4S)-5-(4-(trifluoromethyl)pyridin-2-yl)-2,5-diazabicyclo[2.2.1]heptan-2-yl)benzamide]: the concentration for half-maximal inhibition (IC50) in assay [2] (setting [5]) lay within 0.1 to 1 µM.

On to `Cc1ccc(N2C[C@@H]3C[C@H]2CN3c2ccc(C(=O)NO)cc2)cc1` [N-hydroxy-4-((1S,4S)-5-p-tolyl-2,5-diazabicyclo[2.2.1]heptan-2-yl)benzamide], for which the IC50 in assay [2] (setting [5]) was 0.1 to 1 µM.

For the compound `O=C(NO)c1ccc(Cn2c(-c3ccccc3)cc3ccccc32)cc1` [N-hydroxy-4-((2-phenyl-1H-indol-1-yl)methyl)benzamide], the IC50 in assay [2] (setting [4]) lay within 0.1 to 1 µM.

As to `O=C(NO)c1ccc(CN2C(=O)c3ccccc3CCc3ccccc32)cc1` [N-hydroxy-4-((6-oxo-11,12-dihydrodibenzo[b,f]azocin-5(6H)-yl)methyl)benzamide], the half-inhibitory concentration (IC50) in assay [2] (setting [4]) was in the range of 0.1 to 1 µM.

Consider `O=C(NO)c1ccc(Cn2c(=O)c3ccccc3c3ccccc32)cc1` [N-hydroxy-4-((6-oxophenanthridin-5(6H)-yl)methyl)benzamide], for which the IC50 in assay [2] (setting [4]) is below 0.05 µM.

On to `O=C(NO)c1ccc(CN2C(=O)c3ccccc3Oc3ccccc32)cc1` [N-hydroxy-4-((11-oxodibenzo[b,f][1,4]oxazepin-10(11H)-yl)methyl)benzamide], for which the IC50 in assay [2] (setting [4]) is below 0.05 µM.

In the case of `O=C(NO)c1cnc(N2C[C@@H]3C[C@H]2CN3c2cccc(C(F)(F)F)c2)cn1` [N-hydroxy-5-((1S,4S)-5-(3-(trifluoromethyl)phenyl)-2,5-diazabicyclo[2.2.1]heptan-2-yl)pyrazine-2-carboxamide], in assay [2] (setting [5]), the IC50 fell in the range of 0.1 to 1 µM.

`Cc1ccc(N2CC3CC2CN3c2ccc(C(=O)NO)cn2)cc1` (stereo not drawn) [N-hydroxy-6-(5-p-tolyl-2,5-diazabicyclo[2.2.1]heptan-2-yl)nicotinamide]: the IC50 in assay [2] (setting [5]) is below 0.05 µM.

For the compound `O=C(CCCCCN1C(=O)c2ccccc2Oc2ccccc21)NO` [N-hydroxy-6-(11-oxodibenzo[b,f][1,4]oxazepin-10(11H)-yl)hexanamide], the IC50 in assay [2] (setting [4]) is below 0.05 µM.

For the compound `O=C(NO)c1ccc(N2C[C@@H]3C[C@H]2CN3c2cccc(C(F)(F)F)c2)nn1` [N-hydroxy-6-((1S,4S)-5-(3-(trifluoromethyl)phenyl)-2,5-diazabicyclo[2.2.1]heptan-2-yl)pyridazine-3-carboxamide], in assay [2] (setting [5]), the IC50 is 0.1 to 1 µM.

For the compound `O=C(CCCCCCn1c(=O)c2ccccc2c2ccccc21)NO` [N-hydroxy-7-(6-oxophenanthridin-5(6H)-yl)heptanamide], the IC50 in assay [2] (setting [4]) is below 0.05 µM.

With `O=C(CCCCCCN1C(=O)c2ccccc2Oc2ccccc21)NO` [N-hydroxy-7-(11-oxodibenzo[b,f][1,4]oxazepin-10(11H)-yl)heptanamide], in assay [2] (setting [4]), the IC50 was below 0.05 µM.

As for `O=C(CCCCCCN1C(=O)c2ccccc2Sc2ccccc21)NO` [N-hydroxy-7-(11-oxodibenzo[b,f][1,4]thiazepin-10(11H)-yl)heptanamide], the IC50 in assay [2] (setting [4]) is below 0.05 µM.

With `O=C(CCCCCCOc1nc2ccccc2c2ccccc12)NO` [N-hydroxy-7-(phenanthridin-6-yloxy)heptanamide], the IC50 in assay [2] (setting [4]) is below 0.05 µM.

Regarding `O=C(CCCCCCCN1C(=O)c2ccccc2Oc2ccccc21)NO` [N-hydroxy-8-(11-oxodibenzo[b,f][1,4]oxazepin-10(11H)-yl)octanamide], the IC50 in assay [2] (setting [4]) lay in the range of 0.05 to 0.1 µM.

Consider `O=C(NO)c1cc2c(cn1)[nH]c1ccccc12` [N-hydroxy-9H-pyrido[3,4-b]indole-3-carboxamide], for which, in assay [2] (setting [4]), the IC50 was in the range of 1 to 10 µM.

Consider `O=CN(O)CCCCCCN1C(=O)c2ccccc2Oc2ccccc21` [N-hydroxy-N-(6-(11-oxodibenzo[b,f][1,4]oxazepin-10(11H)-yl)hexyl)formamide], for which the IC50 in assay [2] (setting [4]) is below 0.05 µM.

`O=C(NO)c1cnc(N2CCCN(C(=O)OCc3ccccc3)CC2)nc1` [benzyl 4-(5-(hydroxycarbamoyl)pyrimidin-2-yl)-1,4-diazepane-1-carboxylate]: the IC50 in assay [2] (setting [4]) was 0.05 to 0.1 µM.

Turning to “(Z)-N-(5H-dibenzo[b,f]azepin-5-yl)methyl)benzyl)-N-hydroxyformamide”, in assay [2] (setting [4]), the IC50 lay within 0.1 to 1 µM.
